Among the test systems are DMS-273; HOP-18; KM-20L2; LXFL 529; RXF 631; XF498; BT-549; MDA-MB-435; MDA-N.
Common to all, as to assay: NCI-60 cell line screen, 48 h

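Compound exposure: 48 hours, 5 concentrations, 96-well plates. GI50 marks 50% less growth.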 The source made the active and inactive calls. No stated cut-off is given here; in the data, active = GI50 up to about 1.1 µM and inactive = higher.

Take `COc1cc(/C=N/c2nncs2)ccc1O`: the GI50 in the assay with DMS-273, in the assay with HOP-18, with KM-20L2, with LXFL 529, in the assay with RXF 631 and with XF498 was > 100 µM (inactive) throughout.
Turning to `CC(C)(C)c1ccc(Oc2ccc(C#N)c(C#N)c2)c(C(C)(C)C)c1`, the GI50 was 15.2 µM (inactive) in the assay on DMS-273; > 100 µM (inactive) with HOP-18; 44 µM (inactive) in the assay with KM-20L2; 31.2 µM (inactive) in the assay with LXFL 529; > 60.3 µM (inactive) in the assay on RXF 631; 12.6 µM (inactive) in the assay on XF498.
As to `Cn1c(CCC#N)nc2ccc(Br)cc2c1=O`, the GI50 in the assay on KM-20L2, in the assay with LXFL 529, with RXF 631 and in the assay on XF498 was > 100 µM (inactive) each time.
Turning to `N#CC(C#N)=C1NN=C(Cl)c2ccccc21`, the GI50 in the assay on DMS-273 was > 100 µM (inactive); in the assay on HOP-18 it was 37.3 µM (inactive); in the assay on KM-20L2, > 100 µM (inactive); in the assay on LXFL 529 it was 65 µM (inactive); with RXF 631, 80.5 µM (inactive).
As to `Cc1cc2c(=O)cc(-c3ccc(C(=O)O)cc3)oc2c(C(N)=O)c1C`, the GI50 with DMS-273, in the assay on KM-20L2, in the assay with LXFL 529 and with RXF 631 was > 100 µM (inactive) each time.
As to `O=C(c1cc(O)ccc1O)c1ccccc1C(Cl)(Cl)Cl`, the GI50 in the assay with DMS-273 is > 100 µM (inactive); in the assay with HOP-18, > 100 µM (inactive); in the assay with KM-20L2 it was > 100 µM (inactive); with LXFL 529, 61.4 µM (inactive); in the assay with XF498 it was 34.9 µM (inactive).
Take `CC1CN1c1c(C(=O)/C=C/c2ccccc2)c(-c2ccccc2)nn(C)c1=O` (configuration not stated): the GI50 was 16.7 µM (inactive) in the assay on DMS-273, 26.2 µM (inactive) with HOP-18, 19.1 µM (inactive) in the assay with KM-20L2 and 15.3 µM (inactive) in the assay with LXFL 529.
Turning to `COC(=O)c1c(OC)cccc1C(=O)O`, the GI50 with DMS-273, with HOP-18, with KM-20L2, with LXFL 529 and with RXF 631 was > 100 µM (inactive) in each case.
For `CCCCC(C(=O)CCC(=O)Nc1ccc(Cl)cc1)C(=O)C(C)C` (configuration not stated), the GI50 was > 100 µM (inactive) in the assay on DMS-273; > 100 µM (inactive) with KM-20L2; 92.7 µM (inactive) in the assay with LXFL 529; > 100 µM (inactive) with RXF 631; > 100 µM (inactive) with XF498.
As to `COc1ccc2c3ccc4c(c3n(C)c2c1)C(=O)c1ccccc1C4=O`, the GI50 is > 100 µM (inactive) in the assay on DMS-273, > 100 µM (inactive) with HOP-18, 39.8 µM (inactive) in the assay with KM-20L2 and 78 µM (inactive) with LXFL 529.
`C[C@]12CC[C@H](O)CC1=CC[C@@H]1C2CC[C@]2(C)NC(=O)C(C#N)CC12` (some centres not stated): the GI50 in the assay with DMS-273, with KM-20L2, with LXFL 529 and in the assay with XF498 was > 100 µM (inactive) throughout.
Regarding `O=S1(=O)OCCOS(=O)(=O)C1I`, the GI50 in the assay on DMS-273, with LXFL 529, in the assay with RXF 631 and in the assay with XF498 was > 100 µM (inactive) each time.
With `Cc1cc(O)c2c(c1)C(O)(c1ccc3c(c1O)C(=O)c1c(O)cc(C)cc1C3(O)C1OC(CO)C(O)C(O)C1O)c1cccc(O)c1C2=O` (configuration not stated), the GI50 in the assay with DMS-273 was 15.1 µM (inactive); with HOP-18 it was 5.06 µM (inactive); with KM-20L2, 18.6 µM (inactive); in the assay on LXFL 529, 11.9 µM (inactive); with RXF 631 it was 16 µM (inactive); in the assay on XF498 it was 5.08 µM (inactive).
Turning to `N#CC1(C#N)C(c2ccccc2)C=CC12OCCCO2` (configuration not stated), the GI50 in the assay on DMS-273 is 32.3 µM (inactive); in the assay with HOP-18, > 100 µM (inactive); in the assay on KM-20L2, 68.5 µM (inactive); in the assay on LXFL 529, 28.5 µM (inactive); with RXF 631, 81.3 µM (inactive); with XF498, 49.4 µM (inactive).
With `OCC(O)C(O)C(O)c1nn(-c2ccc(Cl)cc2)c2nc3cc(Cl)c(Cl)cc3nc12` (configuration not stated), the GI50 with DMS-273 was > 100 µM (inactive); in the assay on HOP-18, 31.9 µM (inactive); with KM-20L2 it was > 100 µM (inactive); in the assay on LXFL 529, 33 µM (inactive); in the assay with XF498, 11.1 µM (inactive).
With `N#CC(/C(=N\NC(N)=S)C(=O)NC1C2CC3CC(C2)CC1C3)c1ccc(Cl)cc1` (configuration not stated), the GI50 with DMS-273, in the assay with HOP-18, in the assay on KM-20L2, with LXFL 529, in the assay with RXF 631 and in the assay on XF498 was > 100 µM (inactive) throughout.
Regarding `O=C1NC(Cc2ccccc2)C(=O)N2CCCC12` (configuration not stated), the GI50 in the assay with DMS-273, in the assay on HOP-18, in the assay on KM-20L2, in the assay with LXFL 529 and in the assay on XF498 was > 100 µM (inactive) throughout.
On to `CN(C)c1ccc(/C=C/C(=O)c2ccccc2)cc1Br`, for which the GI50 in the assay on KM-20L2 is 25.1 µM (inactive); in the assay with LXFL 529, 15.1 µM (inactive); in the assay on XF498 it was 16.3 µM (inactive).
Regarding `CCCNCc1nc2ccc(Br)cc2c(=O)n1CCC`, the GI50 in the assay on DMS-273 is 12.4 µM (inactive); in the assay on HOP-18, 18.1 µM (inactive); in the assay on KM-20L2 it was 19.2 µM (inactive); with LXFL 529, 12.6 µM (inactive); with RXF 631, 7.05 µM (inactive); in the assay with XF498, 16.9 µM (inactive).
With `COc1cc(/C=C(\C#N)C(=O)c2ccccc2)cc(OC)c1OC`, the GI50 with DMS-273, with HOP-18, in the assay with KM-20L2 and in the assay with LXFL 529 was > 100 µM (inactive) each time.
Turning to `CCC(=O)N1C(=O)OCC1C(C)C` (configuration not stated), the GI50 is > 100 µM (inactive) with DMS-273; 15.8 µM (inactive) in the assay on HOP-18; > 100 µM (inactive) in the assay on KM-20L2; > 100 µM (inactive) in the assay with LXFL 529; > 100 µM (inactive) with RXF 631; > 100 µM (inactive) in the assay on XF498.
With `Clc1ccc(/C=C/c2csnn2)cc1`, the GI50 in the assay on DMS-273, in the assay with HOP-18, in the assay on KM-20L2, in the assay on LXFL 529 and in the assay on XF498 was > 100 µM (inactive) in each case.
With `C[C@H]1NC(=O)C2CCCCN2C(=O)CN(C)C(=O)CNC(=O)C2CCCCN2C(=O)[C@@H](NC(=O)c2nc3ccccc3cc2O)[C@@H](C)NC(=O)C2CCCCN2C(=O)CN(C)C(=O)CNC(=O)[C@@H]2CCCCN2C(=O)C1NC(=O)c1nc2ccccc2cc1O` (some centres not stated), the GI50 in the assay with DMS-273 was 0.0255 µM (active); with KM-20L2 it was 0.378 µM (active); in the assay on LXFL 529, 0.14 µM (active); in the assay on RXF 631, 0.164 µM (active).
For `CC(=O)/C(C)=N/NC(=O)c1ccccc1O`, the GI50 with BT-549 was > 100 µM (inactive); in the assay with DMS-273, > 10 µM (inactive); in the assay with HOP-18 it was > 10 µM (inactive); in the assay with KM-20L2, > 10 µM (inactive); in the assay with LXFL 529, > 10 µM (inactive); with MDA-MB-435 it was > 100 µM (inactive). Besides, the results for the GI50 in the assay on MDA-N, in the assay with RXF 631 and with XF498 were > 100 µM (inactive), > 10 µM (inactive) and > 10 µM (inactive), respectively.
As for `CCCCCCCCCCCCCC(=O)CSCCNC(=O)CCNC(=O)[C@@H](O)C(C)(C)COP(=O)(O)OP(=O)(O)OCC1OC(n2cnc3c(N)ncnc32)C(O)C1OP(=O)(O)O` (some centres not stated), the GI50 in the assay with DMS-273 was 11.2 µM (inactive); in the assay with HOP-18 it was 17.5 µM (inactive); in the assay on KM-20L2, 19.4 µM (inactive); in the assay on LXFL 529, 17.5 µM (inactive); in the assay with XF498 it was 18.5 µM (inactive).
As to `CN1OC2OC(=O)OC2[C@H]1[C@H]1O[C@H](c2ccccc2)OC1(C)c1cc(OC(=O)c2ccccc2)ccc1OC(=O)c1ccccc1` (some centres not stated), the GI50 with DMS-273, with KM-20L2, in the assay with LXFL 529, with RXF 631 and with XF498 was > 50 µM (inactive) each time.
`COC(=O)C1CC(OC(C)=O)C=C2C(=O)CCC21` (configuration not stated): the GI50 with DMS-273 is 17.2 µM (inactive); with HOP-18, 20.5 µM (inactive); in the assay with KM-20L2, 30.2 µM (inactive); in the assay on LXFL 529, 15.5 µM (inactive); in the assay with RXF 631 it was 27.5 µM (inactive).
In the case of `CC(C)c1ccc(C(c2ccc(OCC(=O)O)cc2)c2ccc(C(C)C)cc(=O)c2O)c(O)c(=O)c1`, the GI50 in the assay with DMS-273 is 3.45 µM (inactive); in the assay with HOP-18, 9.89 µM (inactive); with KM-20L2 it was 3.54 µM (inactive); with LXFL 529, 4.5 µM (inactive); in the assay on RXF 631, 5.08 µM (inactive); with XF498, 2.63 µM (inactive).

(Values after ChEMBL document CHEMBL1201862, “PubChem BioAssay data set” (2004).)
